Assay results published in ChEMBL document CHEMBL1143476, “Synthesis and biological evaluation of 1,3-diphenylprop-2-yn-1-ones as dual inhibitors of cyclooxygenases and lipoxygenases” (Bioorg Med Chem Lett, 2005).
pIC50: −log10 of the molar value.

Tests used:
[1] = target: T1, Prostaglandin G/H synthase 1 (Ovis aries, UniProt P05979); experiment: In vitro inhibitory activity against ovine cyclooxygenase 1
T1 sequence (P05979 whole entry): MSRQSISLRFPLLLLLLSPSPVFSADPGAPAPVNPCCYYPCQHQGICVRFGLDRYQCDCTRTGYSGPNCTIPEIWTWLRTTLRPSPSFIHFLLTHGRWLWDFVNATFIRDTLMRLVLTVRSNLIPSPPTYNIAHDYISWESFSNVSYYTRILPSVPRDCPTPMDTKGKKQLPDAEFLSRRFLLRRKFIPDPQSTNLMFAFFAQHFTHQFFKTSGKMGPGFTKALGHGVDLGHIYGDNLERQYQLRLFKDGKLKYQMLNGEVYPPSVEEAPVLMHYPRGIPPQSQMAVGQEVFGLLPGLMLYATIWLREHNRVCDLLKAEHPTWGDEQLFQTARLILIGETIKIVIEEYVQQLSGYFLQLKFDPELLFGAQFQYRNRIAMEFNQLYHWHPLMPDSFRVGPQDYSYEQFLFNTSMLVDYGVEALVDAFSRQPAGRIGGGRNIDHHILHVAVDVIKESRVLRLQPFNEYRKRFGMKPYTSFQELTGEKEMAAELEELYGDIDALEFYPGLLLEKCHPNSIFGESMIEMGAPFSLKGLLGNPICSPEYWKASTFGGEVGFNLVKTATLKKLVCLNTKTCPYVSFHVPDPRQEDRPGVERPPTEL

[2] = target: T2, Seed linoleate 13S-lipoxygenase-1 (Glycine max, UniProt P08170)
T2 sequence (P08170 whole entry): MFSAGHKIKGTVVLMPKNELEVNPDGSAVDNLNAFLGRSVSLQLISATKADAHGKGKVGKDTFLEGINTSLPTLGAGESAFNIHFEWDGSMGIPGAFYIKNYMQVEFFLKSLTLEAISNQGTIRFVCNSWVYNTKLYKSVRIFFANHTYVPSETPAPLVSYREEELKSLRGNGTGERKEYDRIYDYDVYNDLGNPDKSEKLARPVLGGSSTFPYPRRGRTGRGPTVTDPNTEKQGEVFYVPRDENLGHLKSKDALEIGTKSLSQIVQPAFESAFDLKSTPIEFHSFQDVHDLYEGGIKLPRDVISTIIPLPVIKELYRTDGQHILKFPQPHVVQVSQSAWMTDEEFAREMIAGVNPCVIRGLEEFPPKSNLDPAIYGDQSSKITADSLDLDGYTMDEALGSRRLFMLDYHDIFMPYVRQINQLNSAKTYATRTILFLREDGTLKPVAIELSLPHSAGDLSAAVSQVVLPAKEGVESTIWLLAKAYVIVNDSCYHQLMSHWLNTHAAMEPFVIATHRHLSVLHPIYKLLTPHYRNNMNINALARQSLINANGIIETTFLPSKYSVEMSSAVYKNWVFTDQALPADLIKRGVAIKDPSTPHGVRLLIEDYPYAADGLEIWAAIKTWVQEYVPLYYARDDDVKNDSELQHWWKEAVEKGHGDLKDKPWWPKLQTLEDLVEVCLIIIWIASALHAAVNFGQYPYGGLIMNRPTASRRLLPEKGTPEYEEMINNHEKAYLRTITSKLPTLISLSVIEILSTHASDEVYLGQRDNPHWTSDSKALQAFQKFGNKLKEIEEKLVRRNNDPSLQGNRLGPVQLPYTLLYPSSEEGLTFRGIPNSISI
Description: In vitro inhibitory activity against 15-lipoxygenase obtained from soybean

[3] = target: T2, Seed linoleate 13S-lipoxygenase-1; remark: listed apart in the source
Description: In vitro inhibitory activity against 5-lipoxygenase obtained from potato

SMILES: CS(=O)(=O)c1ccc(C#CC(=O)c2ccccc2)cc1
- pIC50 [1]: 6.00
- pIC50 [2]: < 5.00

SMILES: CS(=O)(=O)c1ccc(C#CC(=O)c2ccc(C(F)(F)F)cc2)cc1
- pIC50 [1]: 5.51
- pIC50 [3]: < 5.00
- pIC50 [2]: < 5.00

SMILES: CS(=O)(=O)c1ccc(C#CC(=O)c2ccc(O)cc2)cc1
- pIC50 [1]: 5.46
- pIC50 [3]: 6.52
- pIC50 [2]: 6.49

SMILES: COc1cccc(C(=O)C#Cc2ccc(S(C)(=O)=O)cc2)c1
- pIC50 [1]: < 4.00
- pIC50 [3]: 5.05
- pIC50 [2]: < 5.00

SMILES: COc1cc(C(=O)C#Cc2ccc(S(C)(=O)=O)cc2)cc(OC)c1OC
- pIC50 [1]: < 4.00
- pIC50 [3]: 5.15
- pIC50 [2]: < 5.00

SMILES: Cc1ccc(C(=O)C#Cc2ccc(S(C)(=O)=O)cc2)cc1
- pIC50 [1]: < 4.00
- pIC50 [3]: < 5.00
- pIC50 [2]: < 5.00

SMILES: COc1ccc(C(=O)C#Cc2ccc(S(C)(=O)=O)cc2)cc1O
- pIC50 [1]: 6.00
- pIC50 [3]: < 5.00
- pIC50 [2]: 6.52

SMILES: CS(=O)(=O)c1ccc(C#CC(=O)c2ccc(F)c(F)c2)cc1
- pIC50 [1]: 5.51
- pIC50 [3]: 6.40
- pIC50 [2]: 5.49

SMILES: CS(=O)(=O)c1ccc(C#CC(=O)c2ccc(C#N)cc2)cc1
- pIC50 [1]: 4.50

SMILES: CS(=O)(=O)c1ccc(C#CC(=O)c2cccc(O)c2)cc1
- pIC50 [1]: < 4.00
- pIC50 [3]: 6.52
- pIC50 [2]: 6.30

SMILES: COc1ccc(C(=O)C#Cc2ccc(S(C)(=O)=O)cc2)cc1
- pIC50 [3]: < 5.00
- pIC50 [2]: 5.46

SMILES: COc1cc(C(=O)C#Cc2ccc(S(C)(=O)=O)cc2)ccc1O
- pIC50 [1]: 5.96
- pIC50 [3]: < 5.00
- pIC50 [2]: 7.00

SMILES: CS(=O)(=O)c1ccc(C#CC(=O)c2ccc(F)cc2)cc1
- pIC50 [1]: 4.52
- pIC50 [3]: < 5.00
- pIC50 [2]: 6.00

SMILES: O=c1cc(-c2ccc(O)c(O)c2)oc2cc(O)cc(O)c12 [LUTEOLIN]
- pIC50 [2]: 5.49
